Laboratory results taken from ChEMBL document CHEMBL5523718, “Design, synthesis, molecular modeling, in vitro and in vivo biological evaluation of potent anthranilamide derivatives as dual P-glycoprotein and CYP3A4 inhibitors” (Eur J Med Chem, 2024).
≈ marks a conversion by molar mass, not a printed value. Where “and” joins values, the source holds several entries; their conditions need not be identical. Equal values may be shown once.

Experiments:
[1] = target: ATP-dependent translocase ABCB1 (Homo sapiens, UniProt P08183); assay: Inhibition of P-gp in human MES-SA/Dx5 cells; type: cell-based
Cytochrome P450 3A4 [2] = target: T1, Cytochrome P450 3A4 (Homo sapiens, UniProt P08684); assay: Inhibition of CYP3A4 in human liver using luciferin-IPA as substrate microsome preincubated with compound for 10 mins followed by NADPH addition and measured after 5 mins; type: ADME, microsomes
MES-SA/Dx5 = assay: Cytotoxicity against human MES-SA/Dx5 cells at 1.28 uM incubated for 3 days by MTT assay relative to control; type: functional; settings: time 3 day
Cytochrome P450 3A4 [3] = target: T1, Cytochrome P450 3A4; assay: Inhibition of CYP3A4 in human Hepatocyte using Luciferin-IPA as substrate; type: ADME, cell-based
[4] = Equilibrium solubility of compound in PBS at pH 7.4; type: physicochemical; settings: for solubility: buffer
[5] = Apparent permeability across apical to basolateral side in human Caco-2 cells assessed as drug recovery; type: ADME, cell-based; settings: read-out: Drug recovery
[6] = Efflux ratio of apparent permeability across basolateral to apical side over apical to basolateral side in human Caco-2 cells; type: ADME, cell-based
[7] = Apparent permeability of compound across apical to basolateral side in human Caco-2 cells; type: ADME, cell-based
[8] = Apparent permeability of compound across basolateral to apical side in human Caco-2 cells; type: ADME, cell-based
[9] = Apparent permeability across basolateral to apical side in human Caco-2 cells assessed as drug recovery; type: ADME, cell-based; settings: read-out: Drug recovery

Sequence of ATP-dependent translocase ABCB1 (P08183 whole entry): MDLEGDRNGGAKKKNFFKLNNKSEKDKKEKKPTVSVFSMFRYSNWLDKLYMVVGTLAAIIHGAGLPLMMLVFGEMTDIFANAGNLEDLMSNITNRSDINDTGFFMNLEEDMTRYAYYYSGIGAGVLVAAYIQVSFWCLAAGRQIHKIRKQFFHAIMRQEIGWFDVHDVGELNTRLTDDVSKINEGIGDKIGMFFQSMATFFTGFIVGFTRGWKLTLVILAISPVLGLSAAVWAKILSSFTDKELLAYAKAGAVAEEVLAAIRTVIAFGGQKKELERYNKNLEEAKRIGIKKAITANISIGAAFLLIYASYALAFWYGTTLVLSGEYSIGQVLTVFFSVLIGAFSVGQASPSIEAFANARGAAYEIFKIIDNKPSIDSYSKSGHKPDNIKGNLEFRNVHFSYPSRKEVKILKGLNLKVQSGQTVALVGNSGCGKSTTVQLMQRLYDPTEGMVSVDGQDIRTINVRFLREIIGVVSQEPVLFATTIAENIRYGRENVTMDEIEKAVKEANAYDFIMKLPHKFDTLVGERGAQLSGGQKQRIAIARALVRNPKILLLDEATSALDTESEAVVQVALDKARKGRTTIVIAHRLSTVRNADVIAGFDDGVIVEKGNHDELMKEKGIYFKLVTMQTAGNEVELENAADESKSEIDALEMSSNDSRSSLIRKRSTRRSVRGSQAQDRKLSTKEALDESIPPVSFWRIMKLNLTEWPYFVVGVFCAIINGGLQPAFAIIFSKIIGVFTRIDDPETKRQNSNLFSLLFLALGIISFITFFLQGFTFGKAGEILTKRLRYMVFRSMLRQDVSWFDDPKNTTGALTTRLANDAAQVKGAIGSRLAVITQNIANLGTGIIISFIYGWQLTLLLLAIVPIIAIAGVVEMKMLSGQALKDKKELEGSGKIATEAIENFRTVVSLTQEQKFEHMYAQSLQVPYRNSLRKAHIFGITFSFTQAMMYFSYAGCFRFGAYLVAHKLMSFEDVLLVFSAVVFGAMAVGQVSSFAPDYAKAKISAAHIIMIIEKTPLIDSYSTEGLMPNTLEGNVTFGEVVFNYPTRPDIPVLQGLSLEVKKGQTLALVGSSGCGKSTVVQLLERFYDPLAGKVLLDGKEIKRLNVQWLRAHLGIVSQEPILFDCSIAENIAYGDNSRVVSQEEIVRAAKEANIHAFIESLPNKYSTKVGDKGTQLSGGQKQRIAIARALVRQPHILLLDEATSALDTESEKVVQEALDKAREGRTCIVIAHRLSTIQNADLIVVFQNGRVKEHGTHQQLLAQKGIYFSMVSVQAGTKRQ
T1 sequence (P08684 whole entry): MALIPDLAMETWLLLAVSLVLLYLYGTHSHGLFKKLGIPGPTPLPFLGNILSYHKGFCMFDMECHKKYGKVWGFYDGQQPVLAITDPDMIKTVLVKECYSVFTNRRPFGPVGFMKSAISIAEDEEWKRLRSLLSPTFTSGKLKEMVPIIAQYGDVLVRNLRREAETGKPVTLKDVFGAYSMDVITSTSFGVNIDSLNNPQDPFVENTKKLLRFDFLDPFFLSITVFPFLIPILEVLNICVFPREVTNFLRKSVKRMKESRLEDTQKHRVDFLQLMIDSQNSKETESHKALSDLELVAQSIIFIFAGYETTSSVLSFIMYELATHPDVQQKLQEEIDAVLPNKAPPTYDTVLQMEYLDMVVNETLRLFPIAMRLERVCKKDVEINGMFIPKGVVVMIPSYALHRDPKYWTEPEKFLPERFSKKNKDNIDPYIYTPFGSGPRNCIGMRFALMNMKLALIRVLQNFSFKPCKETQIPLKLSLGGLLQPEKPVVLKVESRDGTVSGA

Row | Structure (SMILES) | EC50 [1] | IC50 (Cytochrome P450 3A4 [2]) | IC50 (Cytochrome P450 3A4 [3]) | Activity (MES-SA/Dx5) [%] | further results
1 | COc1cc(NC(=O)c2cnc3ccccc3c2)c(C(=O)Nc2ccc(N3CCN(Cc4ccc5c(cnn5C)c4)CC3)cc2)cc1OC | 19 nM | 1880 nM | 6240 nM | 6 | 
2 | COc1cc(NC(=O)c2cc(=O)c3ccccc3o2)c(C(=O)Nc2ccc(C3CCN(Cc4cccc(-n5cncn5)c4)CC3)cc2)cc1OC | 221 nM | 298 nM | 1330 nM | 0 | 
3 | COc1cc(NC(=O)c2cnc3ccccc3c2)c(C(=O)Nc2ccc(C3CCN(Cc4ccc5c(cnn5C)c4)CC3)cc2)cc1OC | 26 nM | 3820 nM | 9000 nM | 3 | 
4 | COc1cc(NC(=O)c2cc(=O)c3ccccc3o2)c(C(=O)Nc2ccc(C3CCN(Cc4ccc5c(c4)OCO5)CC3)cc2)cc1OC | 51 nM | 1240 nM | 6450 nM | 1 | 
5 | COc1ccc(CN2CCC(c3ccc(NC(=O)c4cc(OC)c(OC)cc4NC(=O)c4cnc5ccccc5c4)cc3)CC2)cc1OC | 43 nM | > 9000 nM |  | 3 | 
6 | COc1cc(NC(=O)c2cc(=O)c3ccccc3o2)c(C(=O)Nc2ccc(C3CCN(Cc4cccc(-c5cccnc5)c4)CC3)cc2)cc1OC | 65 nM and 232 nM | 230 nM and 255 nM | 1180 nM and 492 nM | 0 | 
7 | COc1cc(NC(=O)c2cnc3ccccc3c2)c(C(=O)Nc2ccc(N3CCN(Cc4cccc(-c5cccnc5)c4)CC3)cc2)cc1OC | 55 nM | 283 nM | 1090 nM | 0 | solubility [4]: Not Determined(Insoluble); recovery [5]: 51%; efflux ratio [6]: 1.8; Papp A→B [7]: 1.29 ×10⁻⁶ cm/s; Papp B→A [8]: 2.36 ×10⁻⁶ cm/s; recovery [9]: 60%
8 | COc1cc(NC(=O)c2cnc3ccccc3c2)c(C(=O)Nc2ccc(C3CCN(Cc4cccc(-c5cccnc5)c4)CC3)cc2)cc1OC | 108 nM | 245 nM | 967 nM | 0 | 
9 | COc1cc(NC(=O)c2cnc3ccccc3c2)c(C(=O)Nc2ccc(C3CCN(Cc4cccc(-c5ccncc5)c4)CC3)cc2)cc1OC | 188 nM | 1120 nM | 3210 nM | 3 | 
10 | COc1cc(NC(=O)c2cnc3ccccc3c2)c(C(=O)Nc2ccc(N3CCN(Cc4cccc(-n5cncn5)c4)CC3)cc2)cc1OC | 354 nM | 245 nM | 551 nM | 1 | 
11 | COc1cc(NC(=O)c2cnc3ccccc3c2)c(C(=O)Nc2ccc(N3CCN(Cc4cccc(-c5ccncc5)c4)CC3)cc2)cc1OC | 98 nM | 540 nM | 1770 nM | 2 | 
12 | COc1cc(NC(=O)c2cnc3ccccc3c2)c(C(=O)Nc2ccc(N3CCN(Cc4cccc(-n5ccnc5)c4)CC3)cc2)cc1OC | 33 nM | 267 nM | 1890 nM | 0 | solubility thermodynamic ([4]; PBS): 0.092 µM (≈ 0.0614 µg/mL); recovery [5]: 69%; efflux ratio [6]: 1.6; Papp A→B [7]: 0.17 ×10⁻⁶ cm/s; Papp B→A [8]: 0.27 ×10⁻⁶ cm/s; recovery [9]: 74%
13 | COc1cc(NC(=O)c2cnc3ccccc3c2)c(C(=O)Nc2ccc(C3CCN(Cc4cccc(-n5cncn5)c4)CC3)cc2)cc1OC | 156 nM | 654 nM | 1760 nM | 1 | 
14 | COc1cc(NC(=O)c2cnc3ccccc3c2)c(C(=O)Nc2ccc(N3CCN(Cc4ccc5c(c4)OCO5)CC3)cc2)cc1OC | 22 nM | 2110 nM | 5530 nM | 3 | recovery [5]: 75%; Ratio [6]: 14; Papp [8]: 31.7 10^-6 cm/s; recovery [9]: 75%
15 | O=C(Nc1ccccc1C(=O)Nc1ccc(N2CCN(Cc3cccc(-c4cccnc4)c3)CC2)cc1)c1cc(=O)c2ccccc2o1 | 512 nM | 399 nM | 1860 nM | 2 | 
16 | COc1cc(NC(=O)c2cc(=O)c3ccccc3o2)c(C(=O)Nc2ccc(C3CCN(Cc4cccc(-c5ccncc5)c4)CC3)cc2)cc1OC | 167 nM and 212 nM | 153 nM and 216 nM | 1250 nM and 1160 nM | 1 | 
17 | COc1cc(NC(=O)c2cnc3ccccc3c2)c(C(=O)Nc2ccc(C3CCN(Cc4ccc5c(c4)OCO5)CC3)cc2)cc1OC | 39 nM | 3210 nM | 9000 nM | 1 | 
18 | C[C@H]1O[C@@H](O[C@H]2[C@@H](O)C[C@H](O[C@H]3[C@@H](O)C[C@H](O[C@H]4CC[C@@]5(C)[C@H](CC[C@@H]6[C@@H]5C[C@@H](O)[C@]5(C)[C@@H](C7=CC(=O)OC7)CC[C@]65O)C4)O[C@@H]3C)O[C@@H]2C)C[C@H](O)[C@@H]1O [DIGOXIN] |  |  |  |  | recovery [5]: 56%; efflux ratio [6]: 12.2; Papp A→B [7]: 0.98 ×10⁻⁶ cm/s; Papp B→A [8]: 12.1 ×10⁻⁶ cm/s; recovery [9]: 68%
19 | CC(=O)N1CCN(c2ccc(OCC3COC(Cn4ccnc4)(c4ccc(Cl)cc4Cl)O3)cc2)CC1 (centres undefined) [KETOCONAZOLE] |  |  |  | 39 | 

The next lines start with results.

Row | EC50 [1] | IC50 (Cytochrome P450 3A4 [2]) | IC50 (Cytochrome P450 3A4 [3]) | Structure (SMILES) | Activity (MES-SA/Dx5) [%] | further results
20 | 29 nM | > 9000 nM |  | COc1ccc(CN2CCN(c3ccc(NC(=O)c4cc(OC)c(OC)cc4NC(=O)c4cnc5ccccc5c4)cc3)CC2)cc1OC | 1 | 
21 | 39 nM | 162 nM | 2400 nM | COc1cc(NC(=O)c2cc(=O)c3ccccc3o2)c(C(=O)Nc2ccc(N3CCN(Cc4cccc(-n5ccnc5)c4)CC3)cc2)cc1OC | 0 | 
22 | 121 nM | 449 nM | 1640 nM | COc1cc(NC(=O)c2cc(=O)c3ccccc3o2)c(C(=O)Nc2ccc(N3CCN(Cc4cccc(-c5ccncc5)c4)CC3)cc2)cc1OC | 0 | 
23 | 40 nM | > 9000 nM |  | COc1ccc(CN2CCC(c3ccc(NC(=O)c4cc(OC)c(OC)cc4NC(=O)c4cc(=O)c5ccccc5o4)cc3)CC2)cc1OC | 0 | 
24 | 21 nM | > 9000 nM |  | COc1ccc(CN2CCN(c3ccc(NC(=O)c4cc(OC)c(OC)cc4NC(=O)c4cc(=O)c5ccccc5o4)cc3)CC2)cc1OC | 5 | 
25 | 14 nM | 1060 nM | 8120 nM | COc1cc(NC(=O)c2cc(=O)c3ccccc3o2)c(C(=O)Nc2ccc(N3CCN(Cc4ccc5c(cnn5C)c4)CC3)cc2)cc1OC | 2 | 
26 | 30 nM | 1180 nM | 5970 nM | COc1cc(NC(=O)c2cc(=O)c3ccccc3o2)c(C(=O)Nc2ccc(C3CCN(Cc4ccc5c(cnn5C)c4)CC3)cc2)cc1OC | 1 | 
27 | 422 nM | > 9000 nM |  | COc1ccc(CN2CCN(c3ccc(NC(=O)c4ccccc4NC(=O)c4cc(=O)c5ccccc5o4)cc3)CC2)cc1OC | 0 | 
28 | 43 nM | 339 nM | 609 nM | COc1cc(NC(=O)c2cc(=O)c3ccccc3o2)c(C(=O)Nc2ccc(N3CCN(Cc4cccc(-c5cccnc5)c4)CC3)cc2)cc1OC | 0 | solubility [4]: Not Determined(Insoluble); recovery [5]: 62%; Papp A→B [7]: 0.06 ×10⁻⁶ cm/s; Papp B→A [8]: < 0.08 ×10⁻⁶ cm/s; recovery [9]: 86%
29 | 328 nM | 372 nM | 475 nM | COc1cc(NC(=O)c2cc(=O)c3ccccc3o2)c(C(=O)Nc2ccc(N3CCN(Cc4cccc(-n5cncn5)c4)CC3)cc2)cc1OC | 1 | 
30 | 31 nM | 1640 nM | 4660 nM | COc1cc(NC(=O)c2cc(=O)c3ccccc3o2)c(C(=O)Nc2ccc(N3CCN(Cc4ccc5c(c4)OCO5)CC3)cc2)cc1OC | 4 | 
